Data: patent US7626077B2, “Glyphosate-resistant plants” (Mertec LLC, priority 2002, dated 2009)

How the values were obtained:
[1] = system: co-cultivated corn embryos; assay: Selection of Agrobacterium co-cultivated corn embryos on glyphosate-containing medium; format: cell-based, Zea mays; settings: 540 mg/l glyphosate, DN62540RR medium, Agrobacterium-mediated DNA delivery
Description: Transformation can also be accomplished using Agrobacterium-mediated DNA delivery. In this case, the transformation and regeneration are performed according to the methods as described in U.S. patent application Ser. No. 09/203,679, which is herein incorporated by reference. Briefly, after culturing on DN62A0S20GLC (Table 2) for five days, co-cultivated embryos are transferred to DN62ALC180RR medium which contains 180 mg/l glyphosate (Table 3). After two 14-day passages on this medium, actively growing tissue is transferred to DN62540RR medium containing 540 mg/l glyphosate (Table 3). […] Regeneration is carried out as described in U.S. Ser. No. 09/203,679.

[2] = system: cultured immature corn embryos transformed with SEQ ID NO: 6; assay: Selection of beamed corn embryos on glyphosate-containing medium; format: cell-based, Zea mays; settings: 540 mg/l glyphosate, DN62540RR medium, aerosol beam transformation with SEQ ID NO: 6
Description: The Cla I and Eco RV fragment (SEQ ID NO: 6) of HCEM was introduced into cultured immature corn embryos using an aerosol beam injector according to U.S. patent application Ser. No. 09/450,226. The Cia I-Eco RV fragment comprised the glyphosate-resistant EPSPS coding sequence.
Selection was carried out as follows: the beamed embryos were allowed to remain on DN62A0S20G medium for 5 days.
The beamed embryos were then transferred to DN62A100RR—a medium containing 100 mg/l glyphosate. After two 14-day passages on DN62A100RR, actively growing tissue is transferred to DN62A300RR medium which contains 300 mg/l (Table 3). After two 14-day passages on this medium, tissue was finally transferred to DN62540RR medium which contains 540 mg/i glyphosate (Table 3). […] Regeneration is carried out as described in U.S. patent application Ser. No. 09/450,226.

[3] = system: regenerated soybean plants transformed with mutant epm1 and/or mutant epm2; assay: Glyphosate spray of regenerated transgenic soybean plants and progenies; format: in vivo; settings: sprayed at commercial rates, greenhouse
From the text: The Bam HI/Sac II fragment (SEQ ID NO: 2) of epm1 vector and the Eco RI fragment (SEQ ID NO: 4) of epm2 vector were used to transform soybean embryogenic callus using an aerosol beam injector as described in U.S. patent application Ser. No. 09/450,226, which is incorporated herein by reference. These fragments comprised mutant epm1 and mutant epm2 which encode (putative) glyphosate-resistant EPSPSs. These fragments were used either alone or, preferably, together.
The transformed tissue is selected for glyphosate resistance using the method described below. First, the beamed embryogenic callus is maintained for one month on B1-30 3Co5My0.01PA medium.
The tissue is then transferred to the same medium but now containing 300 mg/l glyphosate. After a number of passages (up to 5 passages, each passage may last for about a month) on this latter medium, resistant clonal material may be identified. After an optional further few passages on B1-30 3Co5My0.01PA medium but containing 500 mg/l glyphosate, the growing tissue is transferred to a regeneration media as described in U.S. Pat. Ser. No. 09/450,226. Regenerated plants are transferred to pots in a greenhouse. […] Progenies are expected to 3:1 for glyphosate resistance as would be expected for Mendelian inheritance of a transgene.

Q: What does the source list for O=C(O)CNCP(=O)(O)O [glyphosate, N-phosphonomethylglycine]?
A: growth of stably transformed tissue on glyphosate medium [1]: continued growth; growth of stably transformed tissue on glyphosate medium [2]: continued growth; resistance of regenerated plants and progenies to glyphosate spray [3]: complete resistance
